Results: patent US20240190849A1, “AMINOPYRIMIDINE COMPOUNDS AND METHODS OF THEIR USE” (TYRA BIOSCIENCES, INC., priority 2021, published 2024)

How the values were obtained:
Conditions in all cases: FGFR binding data
FGFR3 (V555M) = biological target: T1, FGFR3 (V555M) (Homo sapiens, UniProt P22607, V555M); test: Kinase binding assay (kinase-tagged T7 phage, affinity beads, qPCR readout), FGFR3 (V555M)
T1 construct: made in house; host or cells: E. coli derived from BL21, infected with T7 phage
Description: (§1) Kinase-tagged T7 phage strains were prepared in an E. coli host derived from the BL21 strain. E. coli were grown to log-phase and infected with T7 phage and incubated with shaking at 32° C. until lysis. The lysates were centrifuged and filtered to remove cell debris. Streptavidin-coated magnetic beads were treated with biotinylated small molecule ligands for 30 minutes at room temperature to generate affinity resins for kinase assays. The liganded beads were blocked with excess biotin and washed with blocking buffer SeaBlock (Pierce), 1% BSA, 0.05% Tween 20, 1 mM DTT to remove unbound ligand and to reduce non-specific binding. Binding reactions were assembled by combining kinases, liganded affinity beads, and test compounds in 1× binding buffer (20% SeaBlock, 0.17×PBS, 0.05% Tween 20, 6 mM DTT).
(§2) Test compounds were prepared as 111× stocks in 100% DMSO. Kds were determined using an 11-point 3-fold compound dilution series with three DMSO control points. All compounds for Kd measurements are distributed by acoustic transfer (non-contact dispensing) in 100% DMSO. The compounds were then diluted directly into the assays such that the final concentration of DMSO was 0.9%. All reactions performed in polypropylene 384-well plate. Each was a final volume of 0.02 ml. The assay plates were incubated at room temperature with shaking for 1 hour and the affinity beads were washed with wash buffer (1×PBS, 0.05% Tween 20). The beads were then re-suspended in elution buffer (1×PBS, 0.05% Tween 20, 0.5 μM non-biotinylated affinity ligand) and incubated at room temperature with shaking for 30 minutes. The kinase concentration in the eluates was measured by qPCR.
(§3) Binding constants were calculated with a standard dose-response curve using the Hill equation: […]
(§4) The Hill Slope was set to −1. Curves were fitted using a non-linear least square fit with the Levenberg-Marquardt algorithm.

FGFR3 = biological target: T2, FGFR3 (Homo sapiens, UniProt P22607); test: Kinase binding assay (kinase-tagged T7 phage, affinity beads, qPCR readout), FGFR3
T2 construct: made in house; host or cells: E. coli derived from BL21, infected with T7 phage
T2 sequence (P22607 23-806): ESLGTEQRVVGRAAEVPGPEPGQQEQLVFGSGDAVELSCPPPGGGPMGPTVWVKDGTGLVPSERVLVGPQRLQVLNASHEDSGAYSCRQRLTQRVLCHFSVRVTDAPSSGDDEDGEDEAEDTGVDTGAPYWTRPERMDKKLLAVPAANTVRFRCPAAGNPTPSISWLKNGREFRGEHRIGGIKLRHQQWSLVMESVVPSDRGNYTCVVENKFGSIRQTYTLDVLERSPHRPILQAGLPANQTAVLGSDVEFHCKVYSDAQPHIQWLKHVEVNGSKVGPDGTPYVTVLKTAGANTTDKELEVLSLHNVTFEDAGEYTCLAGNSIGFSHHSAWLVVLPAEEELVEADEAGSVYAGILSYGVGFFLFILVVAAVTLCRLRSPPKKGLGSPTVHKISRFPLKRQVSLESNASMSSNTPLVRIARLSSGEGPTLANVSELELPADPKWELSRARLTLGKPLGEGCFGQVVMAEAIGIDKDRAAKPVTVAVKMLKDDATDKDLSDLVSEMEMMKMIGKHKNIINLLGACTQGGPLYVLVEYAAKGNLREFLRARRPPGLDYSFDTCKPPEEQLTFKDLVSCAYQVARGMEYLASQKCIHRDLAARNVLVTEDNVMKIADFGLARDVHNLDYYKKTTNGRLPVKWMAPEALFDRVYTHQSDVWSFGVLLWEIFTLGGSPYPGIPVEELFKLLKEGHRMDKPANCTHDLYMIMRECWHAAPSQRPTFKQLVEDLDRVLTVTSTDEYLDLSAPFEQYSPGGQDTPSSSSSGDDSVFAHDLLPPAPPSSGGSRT
Description: as §1, §2, §3, §4

FGFR1 = biological target: T3, FGFR1 (Homo sapiens, UniProt P11362); test: Kinase binding assay (kinase-tagged T7 phage, affinity beads, qPCR readout), FGFR1
T3 construct: made in house; host or cells: E. coli derived from BL21, infected with T7 phage
T3 sequence (P11362 22-822): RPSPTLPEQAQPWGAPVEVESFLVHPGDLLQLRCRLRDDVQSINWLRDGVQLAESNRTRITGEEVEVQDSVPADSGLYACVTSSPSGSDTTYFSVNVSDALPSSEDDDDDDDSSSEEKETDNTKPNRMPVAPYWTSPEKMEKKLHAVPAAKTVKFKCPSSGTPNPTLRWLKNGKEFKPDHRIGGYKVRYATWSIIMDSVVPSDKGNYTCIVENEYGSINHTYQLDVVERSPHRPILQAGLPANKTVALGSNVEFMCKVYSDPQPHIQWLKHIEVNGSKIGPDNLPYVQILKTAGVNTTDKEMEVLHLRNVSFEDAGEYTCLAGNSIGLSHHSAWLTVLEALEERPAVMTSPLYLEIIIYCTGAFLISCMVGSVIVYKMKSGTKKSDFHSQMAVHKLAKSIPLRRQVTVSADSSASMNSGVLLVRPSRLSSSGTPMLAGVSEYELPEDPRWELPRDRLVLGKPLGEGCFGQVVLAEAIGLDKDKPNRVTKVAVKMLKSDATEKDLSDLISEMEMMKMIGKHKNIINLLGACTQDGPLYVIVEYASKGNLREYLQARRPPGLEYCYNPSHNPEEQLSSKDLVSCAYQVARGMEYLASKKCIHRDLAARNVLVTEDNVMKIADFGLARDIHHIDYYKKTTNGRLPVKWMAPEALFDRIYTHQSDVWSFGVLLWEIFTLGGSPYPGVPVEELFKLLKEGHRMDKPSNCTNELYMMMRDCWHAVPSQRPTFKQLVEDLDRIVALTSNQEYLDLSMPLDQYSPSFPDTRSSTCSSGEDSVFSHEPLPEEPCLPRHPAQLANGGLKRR
Description: as §1, §2, §3, §4

FGFR2 = biological target: T4, FGFR2 (Homo sapiens, UniProt P21802); test: Kinase binding assay (kinase-tagged T7 phage, affinity beads, qPCR readout), FGFR2
T4 construct: made in house; host or cells: E. coli derived from BL21, infected with T7 phage
T4 sequence (P21802 22-821): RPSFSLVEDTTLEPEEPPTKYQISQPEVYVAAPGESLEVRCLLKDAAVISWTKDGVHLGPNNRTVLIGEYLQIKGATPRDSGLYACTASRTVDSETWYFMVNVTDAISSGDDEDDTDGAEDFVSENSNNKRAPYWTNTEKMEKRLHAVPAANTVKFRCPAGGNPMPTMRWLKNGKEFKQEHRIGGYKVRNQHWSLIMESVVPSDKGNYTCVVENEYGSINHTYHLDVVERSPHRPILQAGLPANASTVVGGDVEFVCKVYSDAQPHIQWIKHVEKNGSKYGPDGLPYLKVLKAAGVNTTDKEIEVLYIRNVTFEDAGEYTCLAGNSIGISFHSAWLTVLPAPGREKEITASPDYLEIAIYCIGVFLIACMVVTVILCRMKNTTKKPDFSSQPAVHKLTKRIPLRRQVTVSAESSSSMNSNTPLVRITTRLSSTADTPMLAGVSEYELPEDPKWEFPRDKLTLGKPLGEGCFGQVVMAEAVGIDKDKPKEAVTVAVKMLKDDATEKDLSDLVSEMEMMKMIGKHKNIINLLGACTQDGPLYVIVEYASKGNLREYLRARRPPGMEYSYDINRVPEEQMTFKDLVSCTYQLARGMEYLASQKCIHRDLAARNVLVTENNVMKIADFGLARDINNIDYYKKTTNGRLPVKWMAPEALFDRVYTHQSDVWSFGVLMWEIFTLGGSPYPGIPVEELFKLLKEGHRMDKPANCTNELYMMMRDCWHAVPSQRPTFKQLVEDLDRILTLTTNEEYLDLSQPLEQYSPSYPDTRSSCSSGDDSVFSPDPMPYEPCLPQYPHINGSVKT
Description: as §1, §2, §3, §4

T1 sequence (P22607 23-806 V555M): as the sequence (P22607 23-806) above, with V533M counted along it

## C=CC(=O)Nc1cc(C)c2c(c1)c(C)cn2-c1nc(Nc2cnn(C)c2)ncc1Cl [Example 84, N-[1-[5-chloro-2-[(1-methylpyrazol-4-yl)amino]pyrimidin-4-yl]-3,7-dimethyl-indol-5-yl]prop-2-enamide]
FGFR3 (V555M)
  Kd: 0.1 to 100 nM
FGFR3
  Kd: 0.1 to 100 nM
FGFR1
  Kd: 0.1 to 100 nM
FGFR2
  Kd: 0.1 to 100 nM

## C=CC(=O)Nc1ccc2c(c1)c(C)cn2-c1nc(Nc2ccc(CN3CCN(C)CC3)c(F)c2)ncc1Cl [Example 86, N-[1-[5-chloro-2-[3-fluoro-4-[(4-methylpiperazin-1-yl)methyl]-anilino]pyrimidin-4-yl]-3-methyl-indol-5-yl]prop-2-enamide]
FGFR3 (V555M)
  Kd: 0.1 to 100 nM
FGFR3
  Kd: 0.1 to 100 nM
FGFR1
  Kd: 0.1 to 100 nM
FGFR2
  Kd: 0.1 to 100 nM

## C=CC(=O)Nc1ccc2c(c1)c(C)nn2-c1ccnc(Nc2ccnn2C)n1 [Example 87, N-[3-methyl-1-[2-[(2-methylpyrazol-3-yl)amino]pyrimidin-4-yl]indazol-5-yl]prop-2-enamide]
FGFR3 (V555M)
  Kd: > 1000 nM
FGFR3
  Kd: > 1000 nM
FGFR1
  Kd: > 1000 nM
FGFR2
  Kd: > 1000 nM

## C=CC(=O)Nc1ccc2c(c1)c(C)cn2-c1nc(Nc2cccc(N3CCN(CCO)CC3)c2)ncc1Cl [Example 88, N-[1-[5-chloro-2-[3-[4-(2-hydroxyethyl)piperazin-1-yl]anilino]pyrimidin-4-yl]-3-methyl-indol-5-yl]prop-2-enamide]
FGFR3 (V555M)
  Kd: 0.1 to 100 nM
FGFR3
  Kd: 0.1 to 100 nM
FGFR1
  Kd: 0.1 to 100 nM
FGFR2
  Kd: 0.1 to 100 nM

## C=CC(=O)Nc1ccc2c(c1)c(C)cn2-c1nc(Nc2ccc(N3CCOCC3)nc2)ncc1Cl [Example 91, N-[1-[5-chloro-2-[(6-morpholino-3-pyridyl)amino]pyrimidin-4-yl]-3-methyl-indol-5-yl]prop-2-enamide]
FGFR3 (V555M)
  Kd: 0.1 to 100 nM
FGFR3
  Kd: 0.1 to 100 nM
FGFR1
  Kd: 0.1 to 100 nM
FGFR2
  Kd: 0.1 to 100 nM

## C=CC(=O)Nc1ccc2c(-c3ccnc(Nc4ccn(C)n4)n3)cn(C)c2c1 [Example 92, N-[1-methyl-3-[2-[(1-methylpyrazol-3-yl)amino]pyrimidin-4-yl]indol-6-yl]prop-2-enamide]
FGFR3 (V555M)
  Kd: 100 to 250 nM
FGFR3
  Kd: 0.1 to 100 nM
FGFR1
  Kd: 100 to 250 nM
FGFR2
  Kd: 100 to 250 nM

## C=CC(=O)Nc1ccc2c(c1)c(C)cn2-c1nc(Nc2ccn(CC)n2)ncc1C [Example 93, N-[1-[2-[(1-ethylpyrazol-3-yl)amino]-5-methyl-pyrimidin-4-yl]-3-methylindol-5-yl]prop-2-enamide]
FGFR3 (V555M)
  Kd: 0.1 to 100 nM
FGFR3
  Kd: 0.1 to 100 nM
FGFR1
  Kd: 0.1 to 100 nM
FGFR2
  Kd: 0.1 to 100 nM

## C=CC(=O)Nc1ccc2c(-c3ccnc(Nc4ccn(CC)n4)n3)cn(C)c2c1 [Example 94, N-[3-[2-[(1-ethylpyrazol-3-yl)amino]pyrimidin-4-yl]-1-methyl-indol-6-yl]prop-2-enamide]
FGFR3 (V555M)
  Kd: 100 to 250 nM
FGFR3
  Kd: 0.1 to 100 nM
FGFR1
  Kd: 100 to 250 nM
FGFR2
  Kd: 250 to 1000 nM

## C=CC(=O)Nc1ccc2c(-c3ccnc(Nc4cnn(CC)c4)n3)cn(C)c2c1 [Example 95, N-[3-[2-[(1-ethylpyrazol-4-yl)amino]pyrimidin-4-yl]-1-methyl-indol-6-yl]prop-2-enamide]
FGFR3 (V555M)
  Kd: 0.1 to 100 nM
FGFR3
  Kd: 0.1 to 100 nM
FGFR1
  Kd: 0.1 to 100 nM
FGFR2
  Kd: 0.1 to 100 nM

## C=CC(=O)Nc1ccc2c(-c3ccnc(Nc4cnn(C(C)C)c4)n3)cn(C)c2c1 [Example 96, N-[3-[2-[(1-isopropylpyrazol-4-yl)amino]pyrimidin-4-yl]-1-methyl-indol-6-yl]prop-2-enamide]
FGFR3 (V555M)
  Kd: 0.1 to 100 nM
FGFR3
  Kd: 0.1 to 100 nM
FGFR1
  Kd: 0.1 to 100 nM
FGFR2
  Kd: 0.1 to 100 nM

## C=CC(=O)Nc1cnc2c(c1)c(C)cn2-c1ccnc(Nc2ccn(C)n2)n1 [Example 98, N-[3-methyl-1-[2-[(1-methylpyrazol-3-yl)amino]pyrimidin-4-yl]pyrrolo[2,3-b]pyridin-5-yl]prop-2-enamide]
FGFR3 (V555M)
  Kd: 0.1 to 100 nM
FGFR3
  Kd: 0.1 to 100 nM
FGFR1
  Kd: 0.1 to 100 nM
FGFR2
  Kd: 0.1 to 100 nM

## C=CC(=O)Nc1ccc2c(c1)c(C)cn2-c1nc(Nc2ccn(C3CC3)n2)ncc1C [Example 99, N-[1-[2-[(1-cyclopropylpyrazol-3-yl)amino]-5-methyl-pyrimidin-4-yl]-3-methyl-indol-5-yl]prop-2-enamide]
FGFR3 (V555M)
  Kd: 0.1 to 100 nM
FGFR3
  Kd: 0.1 to 100 nM
FGFR1
  Kd: 0.1 to 100 nM
FGFR2
  Kd: 0.1 to 100 nM

## C=CC(=O)Nc1ccc2c(-c3ccnc(Nc4ccn(CCO)n4)n3)cn(C)c2c1 [Example 101, N-[3-[2-[[1-(2-hydroxyethyl)pyrazol-3-yl]amino]pyrimidin-4-yl]-1-methyl-indol-6-yl]prop-2-enamide]
FGFR3 (V555M)
  Kd: 100 to 250 nM
FGFR3
  Kd: 0.1 to 100 nM
FGFR1
  Kd: 100 to 250 nM
FGFR2
  Kd: 250 to 1000 nM

## C=C(C)C(=O)Nc1ccc2c(c1)c(C)cn2-c1nc(Nc2ccnn2C)ncc1C [Example 104, 2-methyl-N-[3-methyl-1-[5-methyl-2-[(2-methylpyrazol-3-yl)amino]pyrimidin-4-yl]indol-5-yl]prop-2-enamide]
FGFR3 (V555M)
  Kd: > 1000 nM
FGFR3
  Kd: > 1000 nM
FGFR1
  Kd: > 1000 nM
FGFR2
  Kd: > 1000 nM

## C=CC(=O)Nc1ccc2c(-c3ccnc(Nc4cnn(CC5CC5)c4)n3)cn(C)c2c1 [Example 105, N-[3-[2-[[1-(cyclopropylmethyl)pyrazol-4-yl]amino]pyrimidin-4-yl]-1-methyl-indol-6-yl]prop-2-enamide]
FGFR3 (V555M)
  Kd: 0.1 to 100 nM
FGFR3
  Kd: 0.1 to 100 nM
FGFR1
  Kd: 0.1 to 100 nM
FGFR2
  Kd: 0.1 to 100 nM

## C#CC(=O)Nc1ccc2c(c1)c(C)cn2-c1nc(Nc2ccnn2C)ncc1C [Example 108, N-[3-methyl-1-[5-methyl-2-[(2-methylpyrazol-3-yl)amino]pyrimidin-4-yl]indol-5-yl]prop-2-ynamide]
FGFR3 (V555M)
  Kd: 0.1 to 100 nM
FGFR3
  Kd: 0.1 to 100 nM
FGFR1
  Kd: 0.1 to 100 nM
FGFR2
  Kd: 0.1 to 100 nM

## C=CS(=O)(=O)Nc1ccc2c(c1)c(C)cn2-c1nc(Nc2ccnn2C)ncc1C [Example 109, N-[3-methyl-1-[5-methyl-2-[(2-methylpyrazol-3-yl)amino]pyrimidin-4-yl]indol-5-yl]ethenesulfonamide]
FGFR3 (V555M)
  Kd: 0.1 to 100 nM
FGFR3
  Kd: 0.1 to 100 nM
FGFR1
  Kd: 0.1 to 100 nM
FGFR2
  Kd: 0.1 to 100 nM

## C=C(F)C(=O)Nc1ccc2c(c1)c(C)cn2-c1nc(Nc2ccnn2C)ncc1C [Example 110, 2-fluoro-N-[3-methyl-1-[5-methyl-2-[(2-methylpyrazol-3-yl)amino]pyrimidin-4-yl]indol-5-yl]prop-2-enamide]
FGFR3 (V555M)
  Kd: 250 to 1000 nM
FGFR3
  Kd: > 1000 nM
FGFR1
  Kd: > 1000 nM
FGFR2
  Kd: > 1000 nM

## C=CC(=O)Nc1ccc2c(-c3ccnc(Nc4cc(C)[nH]n4)n3)cn(C)c2c1 [Example 111, N-[1-methyl-3-[2-[(5-methyl-1H-pyrazol-3-yl)amino]pyrimidin-4-yl]indol-6-yl]prop-2-enamide]
FGFR3 (V555M)
  Kd: > 1000 nM
FGFR3
  Kd: > 1000 nM
FGFR1
  Kd: > 1000 nM
FGFR2
  Kd: > 1000 nM

## C=CC(=O)Nc1ccc2c(-c3ccnc(Nc4ccn(C5CC5)n4)n3)cn(C)c2c1 [Example 112, N-[3-[2-[(1-cyclopropylpyrazol-3-yl)amino]pyrimidin-4-yl]-1-methyl-indol-6-yl]prop-2-enamide]
FGFR3 (V555M)
  Kd: 0.1 to 100 nM
FGFR3
  Kd: 0.1 to 100 nM
FGFR1
  Kd: 100 to 250 nM
FGFR2
  Kd: 100 to 250 nM

## C=CC(=O)Nc1cnc2c(c1)c(C)cn2-c1nc(Nc2ccn(C3COC3)n2)ncc1C [Example 113, N-[3-methyl-1-[5-methyl-2-[[1-(oxetan-3-yl)pyrazol-3-yl]amino]-pyrimidin-4-yl]pyrrolo[2,3-b]pyridin-5-yl]prop-2-enamide]
FGFR3 (V555M)
  Kd: 0.1 to 100 nM
FGFR3
  Kd: 0.1 to 100 nM
FGFR1
  Kd: 0.1 to 100 nM
FGFR2
  Kd: 0.1 to 100 nM

## C=CC(=O)Nc1cnc2c(c1)c(C)cn2-c1nc(Nc2ccn(CC)n2)ncc1C [Example 114, N-[1-[2-[(1-ethylpyrazol-3-yl)amino]-5-methyl-pyrimidin-4-yl]-3-methyl-pyrrolo[2,3-b]pyridin-5-yl]prop-2-enamide]
FGFR3 (V555M)
  Kd: 0.1 to 100 nM
FGFR3
  Kd: 0.1 to 100 nM
FGFR1
  Kd: 0.1 to 100 nM
FGFR2
  Kd: 0.1 to 100 nM

## CCn1ccc(Nc2ncc(C)c(-n3cc(C)c4cc(NC(=O)/C=C/CN(C)C)cnc43)n2)n1 [Example 115, (E)-4-(dimethylamino)-N-[1-[2-[(1-ethylpyrazol-3-yl)amino]-5-methyl-pyrimidin-4-yl]-3-methyl-pyrrolo[2,3-b]pyridin-5-yl]but-2-enamide]
FGFR3 (V555M)
  Kd: 0.1 to 100 nM
FGFR3
  Kd: 0.1 to 100 nM
FGFR1
  Kd: 100 to 250 nM
FGFR2
  Kd: 100 to 250 nM

## C=C(Cl)C(=O)Nc1cnc2c(c1)c(C)cn2-c1nc(Nc2ccn(C)n2)ncc1C [Example 116, 2-chloro-N-[3-methyl-1-[5-methyl-2-[(1-methylpyrazol-3-yl)amino]pyrimidin-4-yl]pyrrolo[2,3-b]pyridin-5-yl]prop-2-enamide]
FGFR3 (V555M)
  Kd: 0.1 to 100 nM
FGFR3
  Kd: 0.1 to 100 nM
FGFR1
  Kd: 100 to 250 nM
FGFR2
  Kd: 0.1 to 100 nM

## C=C(F)C(=O)Nc1cnc2c(c1)c(C)cn2-c1nc(Nc2ccn(C)n2)ncc1C [Example 117, 2-fluoro-N-[3-methyl-1-[5-methyl-2-[(1-methylpyrazol-3-yl)amino]pyrimidin-4-yl]pyrrolo[2,3-b]pyridin-5-yl]prop-2-enamide]
FGFR3 (V555M)
  Kd: > 1000 nM
FGFR3
  Kd: > 1000 nM
FGFR1
  Kd: > 1000 nM
FGFR2
  Kd: > 1000 nM
